Experimental data as given in PubChem BioAssay AID248 (DTP/NCI, 2004).
Where “and” joins values, the source holds several entries; their conditions need not be identical. Equal values may be shown once. Inconclusive results and toxic doses are left out. Rule as the data show it: active = T/C of 150% or more; inactive = T/C below 125%.

Tested on: L1210 leukemia ip in BDF1 mice, survival T/C
Assay: NCI In Vivo Anticancer Drug Screen. Data for tumor model L1210 Leukemia (intraperitoneal) in B6D2F1 (BDF1) mice
Settings: endpoint: mean survival time, higher = longer survival
Outline: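 Antitumor effect is assessed in tumor-bearing animals. Survival in the compound arm is compared with a vehicle-dosed control arm and expressed as their quotient.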

[1] = dose: 100.0 mg/kg/injection, schedule: Q01DX009 (ip), vehicle: Klucel (hydroxypropylcellulose) (HPC)
[2] = dose: 100.0 mg/kg/injection, schedule: Q04DX002 (ip), vehicle: Klucel (hydroxypropylcellulose) (HPC)
[3] = dose: 100.0 mg/kg/injection, schedule: Q04DX003 (ip), vehicle: Klucel (hydroxypropylcellulose) (HPC)
[4] = dose: 200.0 mg/kg/injection, schedule: Q01DX009 (ip), vehicle: Klucel (hydroxypropylcellulose) (HPC)
[5] = dose: 200.0 mg/kg/injection, schedule: Q04DX002 (ip), vehicle: Klucel (hydroxypropylcellulose) (HPC)
[6] = dose: 200.0 mg/kg/injection, schedule: Q04DX003 (ip), vehicle: Klucel (hydroxypropylcellulose) (HPC)
[7] = dose: 400.0 mg/kg/injection, schedule: Q01DX009 (ip), vehicle: Klucel (hydroxypropylcellulose) (HPC)
[8] = dose: 400.0 mg/kg/injection, schedule: Q04DX002 (ip), vehicle: Klucel (hydroxypropylcellulose) (HPC)
[9] = dose: 400.0 mg/kg/injection, schedule: Q04DX003 (ip), vehicle: Klucel (hydroxypropylcellulose) (HPC)
[10] = dose: 100.0 mg/kg/injection, schedule: Q04DX002 (ip), vehicle: saline
[11] = dose: 200.0 mg/kg/injection, schedule: Q04DX002 (ip), vehicle: saline
[12] = dose: 400.0 mg/kg/injection, schedule: Q04DX002 (ip), vehicle: saline
[13] = dose: 50.0 mg/kg/injection, schedule: Q01DX001 (ip), vehicle: saline
[14] = dose: 100.0 mg/kg/injection, schedule: Q01DX001 (ip), vehicle: Klucel (hydroxypropylcellulose) (HPC)
[15] = dose: 200.0 mg/kg/injection, schedule: Q01DX001 (ip), vehicle: Klucel (hydroxypropylcellulose) (HPC)
[16] = dose: 400.0 mg/kg/injection, schedule: Q01DX001 (ip), vehicle: Klucel (hydroxypropylcellulose) (HPC)
[17] = dose: 100.0 mg/kg/injection, schedule: Q01DX009 (ip), vehicle: saline with Tween-80
[18] = dose: 200.0 mg/kg/injection, schedule: Q01DX009 (ip), vehicle: saline with Tween-80

Measured: T/C

CC(C)(C)C1=NN=C(C(C)(C)C)CSC1
inactive: [1] 95 % of control and 100 % of control | [2] 98 % of control and 103 % of control | [3] 101 % of control | [4] 101 % of control and 113 % of control | [5] 103 % of control and 105 % of control | [6] 97 % of control | [7] 101 % of control and 92 % of control | [8] 98 % of control and 105 % of control | [9] 95 % of control

CCCC(O)S(=O)(=O)O (configuration not stated)
inactive: dose: 50.0 mg/kg/injection, schedule: Q01DX009 (ip), vehicle: saline 103 % of control | dose: 100.0 mg/kg/injection, schedule: Q01DX009 (ip), vehicle: saline 94 % of control | dose: 100.0 mg/kg/injection, schedule: Q04DX003 (ip), vehicle: acetone 102 % of control | dose: 200.0 mg/kg/injection, schedule: Q01DX009 (ip), vehicle: saline 97 % of control | dose: 200.0 mg/kg/injection, schedule: Q04DX003 (ip), vehicle: acetone 99 % of control | dose: 400.0 mg/kg/injection, schedule: Q04DX003 (ip), vehicle: acetone 93 % of control

O=C(Nc1ccc(O)cc1)Nc1cccc(C(F)(F)F)c1
inactive: dose: 100.0 mg/kg/injection, schedule: Q01DX009 (ip), vehicle: gum acacia 103 % of control | dose: 200.0 mg/kg/injection, schedule: Q01DX009 (ip), vehicle: gum acacia 106 % of control | dose: 400.0 mg/kg/injection, schedule: Q01DX009 (ip), vehicle: gum acacia 100 % of control

CC(C)(CCc1ccccn1)C(=O)C(CCc1ccccn1)CCc1ccccn1
inactive: dose: 222.0 mg/kg/injection, schedule: Q01DX Z (ip), vehicle: saline 110 % of control | dose: 333.0 mg/kg/injection, schedule: Q01DX Z (ip), vehicle: saline 102 % of control | dose: 500.0 mg/kg/injection, schedule: Q01DX Z (ip), vehicle: saline 96 % of control

C[S+](C)CCS(=O)(=O)[O-]
inactive: [10] 99 % of control | [11] 96 % of control | [12] 96 % of control

COC1OC(O)C(NC(=O)C(F)(F)F)CC1O (configuration not stated)
inactive: [13] 103 % of control | dose: 100.0 mg/kg/injection, schedule: Q01DX001 (ip), vehicle: saline 97 % of control | dose: 200.0 mg/kg/injection, schedule: Q01DX001 (ip), vehicle: saline 103 % of control | dose: 400.0 mg/kg/injection, schedule: Q01DX001 (ip), vehicle: saline 91 % of control

Cc1nc(N)[nH]c(=O)c1CCCCC#N
inactive: [14] 100 % of control | [1] 93 % of control and 106 % of control | [2] 100 % of control and 102 % of control | [3] 97 % of control | [15] 100 % of control | [4] 95 % of control and 100 % of control | [5] 102 % of control and 107 % of control | [6] 111 % of control | [16] 100 % of control | [7] 117 % of control | [8] 100 % of control and 104 % of control | [9] 102 % of control

Nc1cc(Cl)nc(-c2ccccc2)n1
inactive: dose: 50.0 mg/kg/injection, schedule: Q01DX009 (ip), vehicle: Klucel (hydroxypropylcellulose) (HPC) 98 % of control | [1] 98 % of control | [4] 102 % of control

O=C(Nc1cccc(C2=NCCCN2)c1)c1ccc(C(=O)Nc2cccc(C3=NCCCN3)c2)c([N+](=O)[O-])c1
inactive: dose: 0.05 mg/kg/injection, schedule: Q01DX015 (ip), vehicle: water 98 % of control | dose: 0.09 mg/kg/injection, schedule: Q01DX015 (ip), vehicle: water 96 % of control | dose: 0.19 mg/kg/injection, schedule: Q01DX015 (ip), vehicle: water 98 % of control | dose: 0.38 mg/kg/injection, schedule: Q01DX015 (ip), vehicle: water 101 % of control | dose: 0.5 mg/kg/injection, schedule: Q01DX015 (ip), vehicle: water 97 % of control

CC1(C)CC(=O)C(c2ccc([N+](=O)[O-])cc2)=C(O)c2ccccc21
inactive: dose: 50.0 mg/kg/injection, schedule: Q01DX009 (ip), vehicle: saline with Tween-80 91 % of control | [17] 94 % of control | [18] 91 % of control

O=C1CC2(CCN(Cc3ccccc3)CC2)C(=O)N1Nc1ccccc1
inactive: [14] 105 % of control | [15] 100 % of control | [16] 100 % of control

CCC/C(=C/c1cc2ccccc2c2ccccc12)[N+](=O)[O-]
inactive: dose: 100.0 mg/kg/injection, schedule: Q01DX001 (ip), vehicle: carboxymethylcellulose (CMC) 97 % of control | dose: 200.0 mg/kg/injection, schedule: Q01DX001 (ip), vehicle: carboxymethylcellulose (CMC) 111 % of control | dose: 400.0 mg/kg/injection, schedule: Q01DX001 (ip), vehicle: carboxymethylcellulose (CMC) 106 % of control

CC(C)=C(Br)CN
inactive: dose: 100.0 mg/kg/injection, schedule: Q04DX003 (ip), vehicle: saline 95 % of control | dose: 200.0 mg/kg/injection, schedule: Q04DX003 (ip), vehicle: saline 108 % of control | dose: 400.0 mg/kg/injection, schedule: Q04DX003 (ip), vehicle: saline 94 % of control

c1ccc2c(C3OCC4(CCCCC4)CO3)cccc2c1
inactive: [1] 97 % of control | [3] 101 % of control | [4] 97 % of control | [6] 105 % of control | [7] 92 % of control | [9] 111 % of control

O=c1c2ccccc2nc2n1CCC2
inactive: dose: 25.0 mg/kg/injection, schedule: Q01DX001 (ip), vehicle: saline 102 % of control | [13] 93 % of control | dose: 75.0 mg/kg/injection, schedule: Q01DX001 (ip), vehicle: saline 104 % of control

CC(=O)Nc1ccc(S(=O)(=O)N(CCO)c2ccccc2)cc1
inactive: [3] 97 % of control | [6] 90 % of control | [9] 90 % of control

CCCCC#CC(=O)OC(C)CC (configuration not stated)
inactive: [10] 104 % of control | [11] 92 % of control | [12] 101 % of control

O=C(Oc1ccccc1[N+](=O)[O-])c1ccccc1
inactive: dose: 100.0 mg/kg/injection, schedule: Q04DX003 (ip), vehicle: other 98 % of control | dose: 200.0 mg/kg/injection, schedule: Q04DX003 (ip), vehicle: other 118 % of control | dose: 400.0 mg/kg/injection, schedule: Q04DX003 (ip), vehicle: other 93 % of control

O=C(COc1cccc(Cl)c1)NCc1ccc([N+](=O)[O-])cc1
inactive: dose: 100.0 mg/kg/injection, schedule: Q01DX001 (ip), vehicle: saline with Tween-80 96 % of control | [17] 94 % of control | dose: 200.0 mg/kg/injection, schedule: Q01DX001 (ip), vehicle: saline with Tween-80 93 % of control | [18] 100 % of control | dose: 400.0 mg/kg/injection, schedule: Q01DX001 (ip), vehicle: saline with Tween-80 101 % of control | dose: 400.0 mg/kg/injection, schedule: Q01DX009 (ip), vehicle: saline with Tween-80 97 % of control

O=C(O)c1c2ccc(=O)cc-2oc2cc(O)ccc12
inactive: [3] 92 % of control | [6] 92 % of control | [9] 89 % of control

O=C1C=CC(=O)N1CO
inactive: dose: 2.5 mg/kg/injection, schedule: Q01DX009 (ip), vehicle: saline 91 % of control | dose: 2.5 mg/kg/injection, schedule: Q04DX003 (ip), vehicle: saline 96 % of control | dose: 5.0 mg/kg/injection, schedule: Q01DX009 (ip), vehicle: saline 94 % of control | dose: 5.0 mg/kg/injection, schedule: Q04DX003 (ip), vehicle: saline 98 % of control | dose: 10.0 mg/kg/injection, schedule: Q04DX003 (ip), vehicle: saline 91 % of control
